Structures can show the parent of a compound that is named as a salt.
Test system: U2OS cell line stably expressing RFP-eGFP-hLC3b (a tandem reporter cell line)
Test: Tandem reporter assay (assay to assess autophagic flux)
Type: cell-based, Human
Details: result in words; at different concentrations
Procedure: Selected compounds of this invention were also assessed for their ability to stimulate autophagy using a U2OS cell line stabling expressing RFP-eGFP-hLC3b (a tandem reporter cell line). During the process of autophagy, the cargo to be degraded is first enveloped by organelles called autophagosomes. These autophagosomes then fuse with lysosomes, causing them to become acidified and their digestive enzymes to become activated. The term "autophagic flux" is used to represent the dynamic process of autophagy: autophagic flux refers to the whole process of autophagy, including autophagosome formation, maturation, fusion with lysosomes, subsequent breakdown, and the release of macromolecules back into the cytosol (Zhang XJ, Chen S, Huang KX, Le WD. Why should autophagic flux be assessed? Acta Pharmacol Sin. 2013 May; 34(5): 595-9. doi: 10.1038/aps.2012.184. Epub 2013 Mar 11). Compounds that stimulate autophagic flux stimulate the dynamic process of autophagy (the whole process of autophagy). […] Using a fluorescent microscope, the number of autophagosomes and autolysosomes can be counted, allowing for the monitoring of both the induction of autophagy (total puncta count) and the rate of autophagic flux (ratio of red-only to red-and-green puncta). The influence of small molecules on autophagy induction and flux can be assessed using this system by comparison to a non-treated control. […]

SMILES	number of RFP-only puncta (autolysosomes) relative to a DMSO-treated control (non-treated control)
CC(C)c1ccc(-n2cc(C#N)c(-c3nc(C(=O)N(C(C)C)C4CCNCC4)cs3)n2)nc1.Cl [Compound E, N-isopropyl-N-4-piperidyl-2-[4-cyano-1-(5-isopropyl-2-pyridyl)-3-pyrazolyl]-1,3-thiazole-4-carboxamide hydrochloride]	Particularly good results
CC(C)N(C(=O)c1csc(-c2cnc3ccccn23)n1)[C@@H]1CCNC1 [SLN5-X-0978, (R)-2-(imidazo[1,2-a]pyridin-3-yl)-N-Isopropyl-N-(pyrrolidin-3-yl) thiazole-4-carboxamide hydrochloride]	Particularly good results

Source: patent EP4653432A1, “AUTOPHAGY INDUCING COMPOUNDS AND USES THEREOF IN THE PREVENTION OR THERAPY OF DISEASES” (Samsara Therapeutics Inc., priority 2024, dated 2025)
